# Measurements: patent US8575091B1, “Amylin analogues and pharmaceutical compositions thereof” (Novo Nordisk A/S, priority 2012, dated 2013)
# Like-named read-outs stand apart in the source and are kept apart here. Numbered stars: 1 amine (or outer) side, 2 acyl side, 3 side chain; on linkers, the order of the positions; unused ones are H or OH. Bridge positions count the residues as written; N and C are the ends. Peptide text beside a SMILES is read from it. * marks the point of attachment. C20 diacid = O=C(O)CCCCCCCCCCCCCCCCCCC(=O)*; γGlu = O=C(O)[C@H](CCC(=O)[*:2])N[*:1]
# Tests used:
# [1] = target: T1, human amylin receptor (amylin 3(a) receptor: human calcitonin receptor + RAMP-3) (Homo sapiens, UniProt O60896+P30988); test: Assay (II)a functional assay, human amylin receptor (CRE luciferase, BHK cells); format: cell-based; settings: for EC50: read-out: hAmylin-R funct. EC50
# T1 construct: expressed in transfected cells
# T1 sequence (P30988 25-474): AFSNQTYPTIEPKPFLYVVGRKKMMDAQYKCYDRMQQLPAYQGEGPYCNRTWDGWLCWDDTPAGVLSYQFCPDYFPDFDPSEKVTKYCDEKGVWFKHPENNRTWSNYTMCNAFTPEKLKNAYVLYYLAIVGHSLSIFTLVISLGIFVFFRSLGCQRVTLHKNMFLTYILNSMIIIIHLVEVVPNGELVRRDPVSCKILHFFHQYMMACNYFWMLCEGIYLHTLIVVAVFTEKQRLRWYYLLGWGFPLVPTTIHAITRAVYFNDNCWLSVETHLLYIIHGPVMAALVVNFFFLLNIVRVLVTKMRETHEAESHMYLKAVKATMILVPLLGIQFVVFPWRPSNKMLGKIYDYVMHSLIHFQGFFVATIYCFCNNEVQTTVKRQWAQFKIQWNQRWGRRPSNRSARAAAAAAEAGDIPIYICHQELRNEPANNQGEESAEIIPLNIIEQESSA
# T1 sequence (O60896 24-148 partner): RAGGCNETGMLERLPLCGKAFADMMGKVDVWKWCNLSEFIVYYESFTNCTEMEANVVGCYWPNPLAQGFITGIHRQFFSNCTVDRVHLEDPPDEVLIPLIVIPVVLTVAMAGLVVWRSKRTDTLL
# [2] = target: T2, human calcitonin receptor (Homo sapiens, UniProt P30988); test: Assay (II)a functional assay, human calcitonin receptor (CRE luciferase, BHK cells);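 also: luminescence from a CRE-driven luciferase reporter, read by single photon counting after cells were exposed to test samples for 3 h at 37 °C under 5% CO2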; format: cell-based; settings: read-out: hCTR funct. EC50
# T2 construct: expressed in transfected cells
# T2 sequence (P30988 25-474): T1 sequence (P30988 25-474)
# [3] = target: T3, human amylin receptor (Homo sapiens, UniProt O60896+P30988); test: Assay (V) binding to the human amylin receptor (SPA, 125I-rat amylin); settings: for IC50: human amylin receptor membranes, SPA, read-out: hAmylin-R bind IC50
# T3 construct: expressed in transfected cells
# T3 sequence (P30988 25-474): T1 sequence (P30988 25-474)
# T3 sequence (O60896 24-148 partner): T1 sequence (O60896 24-148 partner)
# Outline: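 IC50, taken as receptor affinity, came from one-site binding competition analysis of scintillation proximity counts. Amylin 3(a)/CRE-luc cell membranes (35 ng/μL final) were mixed with SPA beads (0.05 mg/well) in 50 mM Hepes pH 7.4 containing CaCl2, MgCl2, 0.1% OA and 0.02% Tween20.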
# [4] = target: T2, human calcitonin receptor; test: Assay (VII) binding to the human calcitonin receptor (SPA, 125I-Calcitonin); settings: read-out: hCTR bind IC50;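 also: cell membranes coupled to SPA beads, competitive displacement read by scintillation counting, IC50 derived from a one-site competition fit as a measure of receptor affinity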
# [5] = functional assay, human amylin receptor
# [6] = Table 7b, human calcitonin receptor binding IC50 divided by human amylin receptor binding IC50
# [7] = human binding ratio, included for comparison
"EC50 [1, 5]",EC50 [2],"Ratio hCT/hAmylin binding [3, 6]","Ratio hCT/hAmylin binding ([3]; Table 7c, human calcitonin receptor binding IC50 divided by human amylin receptor binding IC50)",IC50 [3],"Ratio hCT/hAmylin binding [3, 7]",IC50 [4],"Ratio hCT/hAmylin funct. ([1]; Table 6, human functional selectivity (hCTR EC50 / hAmylin-R EC50))","Ratio hCT/hAmylin funct. ([1]; Table 6a, human functional selectivity (hCTR EC50 / hAmylin-R EC50), at least 5)","Ratio hCT/hAmylin funct. ([1]; Table 6i, hCTR funct. EC50 / hAmylin-R funct. EC50)","EC50 ([1]; Table 6i, human amylin receptor functional)","Ratio hCT/hAmylin funct. ([1]; Table 6j, hCTR funct. EC50 / hAmylin-R funct. EC50)","Ratio hCT/hAmylin funct. ([1]; Table 6k, hCTR funct. EC50 / hAmylin-R funct. EC50)",Compound
0.134 nM,1.68 nM,–,–,0.919 nM,–,21.7 nM,–,–,–,–,–,–,CC[C@H](C)[C@H](NC(=O)[C@H](C)NC(=O)CNC(=O)[C@H](Cc1ccccc1)NC(=O)[C@H](CC(N)=O)NC(=O)[C@@H]1CCCN1C(=O)[C@H](CO)NC(=O)[C@H](CO)NC(=O)[C@H](Cc1c[nH]cn1)NC(=O)[C@H](CCCNC(=N)N)NC(=O)[C@H](CC(C)C)NC(=O)[C@H](Cc1ccccc1)NC(=O)[C@H](Cc1c[nH]cn1)NC(=O)[C@H](C)NC(=O)[C@H](CC(C)C)NC(=O)[C@H](CCCNC(=N)N)NC(=O)[C@H](CCC(N)=O)NC(=O)[C@@H](NC(=O)[C@H](C)NC(=O)[C@@H]1CSSC[C@H](NC(=O)[C@H](CCCCN)NC(=O)CC[C@H](NC(=O)CCCCCCCCCCCCCCCCCCC(=O)O)C(=O)O)C(=O)N[C@@H](CC(N)=O)C(=O)N[C@@H]([C@@H](C)O)C(=O)N[C@@H](C)C(=O)N[C@@H]([C@@H](C)O)C(=O)N1)[C@@H](C)O)C(=O)N1CCC[C@H]1C(=O)N[C@@H](CO)C(=O)N[C@@H](CO)C(=O)N[C@H](C(=O)N[C@@H](CC(N)=O)C(=O)N[C@H](C(=O)NCC(=O)N[C@@H](CO)C(=O)N[C@@H](CCC(=O)O)C(=O)N[C@H](C(=O)N[C@@H](Cc1ccc(O)cc1)C(N)=O)[C@@H](C)O)C(C)C)[C@@H](C)O [Example 30] ({C20 diacid-γGlu}-KCNTATCATQRLAHFLRHSSPNFGAIPSSTNVGSETY-NH2; disulfide 2-7)
–,0.717 nM,16.0,–,0.204 nM,16.0,3.26 nM,6.4,6.4,6.4,0.112 nM,6.4,6.4,CC[C@H](C)[C@H](NC(=O)[C@H](C)NC(=O)CNC(=O)[C@H](Cc1ccccc1)NC(=O)[C@H](CC(N)=O)NC(=O)[C@@H]1CCCN1C(=O)[C@H](CO)NC(=O)[C@H](CO)NC(=O)[C@H](Cc1c[nH]cn1)NC(=O)[C@H](CCCNC(=N)N)NC(=O)[C@H](CC(C)C)NC(=O)[C@H](Cc1ccccc1)NC(=O)[C@H](CCC(=O)O)NC(=O)[C@H](C)NC(=O)[C@H](CC(C)C)NC(=O)[C@H](CCCNC(=N)N)NC(=O)[C@H](CCC(N)=O)NC(=O)[C@@H](NC(=O)[C@H](C)NC(=O)[C@@H]1CSSC[C@H](NC(=O)[C@H](CCCCN)NC(=O)CC[C@H](NC(=O)CCCCCCCCCCCCCCCCCCC(=O)O)C(=O)O)C(=O)N[C@@H](CC(N)=O)C(=O)N[C@@H]([C@@H](C)O)C(=O)N[C@@H](C)C(=O)N[C@@H]([C@@H](C)O)C(=O)N1)[C@@H](C)O)C(=O)N1CCC[C@H]1C(=O)N[C@@H](CO)C(=O)N[C@@H](CO)C(=O)N[C@H](C(=O)N1CCC[C@H]1C(=O)N[C@H](C(=O)NCC(=O)N[C@@H](CO)C(=O)N[C@@H](CC(N)=O)C(=O)N[C@H](C(=O)N[C@@H](Cc1ccc(O)cc1)C(N)=O)[C@@H](C)O)C(C)C)[C@@H](C)O [Example 31] ({C20 diacid-γGlu}-KCNTATCATQRLAEFLRHSSPNFGAIPSSTPVGSNTY-NH2; disulfide 2-7)

# More lines, now with the values behind:
Compound,"EC50 [1, 5]",EC50 [2],"Ratio hCT/hAmylin binding [3, 6]","Ratio hCT/hAmylin binding ([3]; Table 7c, human calcitonin receptor binding IC50 divided by human amylin receptor binding IC50)",IC50 [3],"Ratio hCT/hAmylin binding [3, 7]",IC50 [4],"Ratio hCT/hAmylin funct. ([1]; Table 6, human functional selectivity (hCTR EC50 / hAmylin-R EC50))","Ratio hCT/hAmylin funct. ([1]; Table 6a, human functional selectivity (hCTR EC50 / hAmylin-R EC50), at least 5)","Ratio hCT/hAmylin funct. ([1]; Table 6i, hCTR funct. EC50 / hAmylin-R funct. EC50)","EC50 ([1]; Table 6i, human amylin receptor functional)","Ratio hCT/hAmylin funct. ([1]; Table 6j, hCTR funct. EC50 / hAmylin-R funct. EC50)","Ratio hCT/hAmylin funct. ([1]; Table 6k, hCTR funct. EC50 / hAmylin-R funct. EC50)"
CC[C@H](C)[C@H](NC(=O)[C@H](C)NC(=O)CNC(=O)[C@H](Cc1ccccc1)NC(=O)[C@H](CC(N)=O)NC(=O)[C@@H]1CCCN1C(=O)[C@H](CO)NC(=O)[C@H](CO)NC(=O)[C@H](Cc1c[nH]cn1)NC(=O)[C@H](CCCNC(=N)N)NC(=O)[C@H](CC(C)C)NC(=O)[C@H](Cc1ccccc1)NC(=O)[C@H](CC(N)=O)NC(=O)[C@H](C)NC(=O)[C@H](CC(C)C)NC(=O)[C@H](CCCNC(=N)N)NC(=O)[C@H](CCC(N)=O)NC(=O)[C@@H](NC(=O)[C@H](C)NC(=O)[C@@H]1CSSC[C@H](NC(=O)[C@H](CCCCN)NC(=O)COCCOCCNC(=O)COCCOCCNC(=O)CC[C@H](NC(=O)CCCCCCCCCCCCCCCCCCC(=O)O)C(=O)O)C(=O)N[C@@H](CC(N)=O)C(=O)N[C@@H]([C@@H](C)O)C(=O)N[C@@H](C)C(=O)N[C@@H]([C@@H](C)O)C(=O)N1)[C@@H](C)O)C(=O)N1CCC[C@H]1C(=O)N[C@@H](CO)C(=O)N[C@@H](CO)C(=O)N[C@H](C(=O)N[C@@H](CC(N)=O)C(=O)N[C@H](C(=O)NCC(=O)N[C@@H](CO)C(=O)N[C@@H](CC(N)=O)C(=O)N[C@H](C(=O)N[C@@H](Cc1ccc(O)cc1)C(N)=O)[C@@H](C)O)C(C)C)[C@@H](C)O [Example 24],0.433 nM,10 nM,90.0,90.0,1.14 nM,90.0,102 nM,–,–,–,–,–,–
CC[C@H](C)[C@H](NC(=O)[C@H](C)NC(=O)CNC(=O)[C@H](Cc1ccccc1)NC(=O)[C@H](CC(N)=O)NC(=O)[C@@H]1CCCN1C(=O)[C@H](CO)NC(=O)[C@H](CO)NC(=O)[C@H](Cc1c[nH]cn1)NC(=O)[C@H](CCCNC(=N)N)NC(=O)[C@H](CC(C)C)NC(=O)[C@H](Cc1ccccc1)NC(=O)[C@H](CC(N)=O)NC(=O)[C@H](C)NC(=O)[C@H](CC(C)C)NC(=O)[C@H](CCCNC(=N)N)NC(=O)[C@H](CCC(N)=O)NC(=O)[C@@H](NC(=O)[C@H](C)NC(=O)[C@@H]1CSSC[C@H](NC(=O)[C@@H](N)CCCCNC(=O)COCCOCCNC(=O)COCCOCCNC(=O)CC[C@H](NC(=O)CCCCCCCCCCCCCCCCCCC(=O)O)C(=O)O)C(=O)N[C@@H](CC(N)=O)C(=O)N[C@@H]([C@@H](C)O)C(=O)N[C@@H](C)C(=O)N[C@@H]([C@@H](C)O)C(=O)N1)[C@@H](C)O)C(=O)N1CCC[C@H]1C(=O)N[C@@H](CO)C(=O)N[C@@H](CO)C(=O)N[C@H](C(=O)N[C@@H](CC(N)=O)C(=O)N[C@H](C(=O)NCC(=O)N[C@@H](CO)C(=O)N[C@@H](CCC(=O)O)C(=O)N[C@H](C(=O)N[C@@H](Cc1ccc(O)cc1)C(N)=O)[C@@H](C)O)C(C)C)[C@@H](C)O [Example 25],0.217 nM,10 nM,–,–,0.768 nM,–,43.4 nM,–,–,–,–,–,–
CC[C@H](C)[C@H](NC(=O)[C@H](C)NC(=O)CNC(=O)[C@H](Cc1ccccc1)NC(=O)[C@H](CC(N)=O)NC(=O)[C@@H]1CCCN1C(=O)[C@H](CO)NC(=O)[C@H](CO)NC(=O)[C@H](Cc1c[nH]cn1)NC(=O)[C@H](CCCNC(=N)N)NC(=O)[C@H](CC(C)C)NC(=O)[C@H](Cc1ccccc1)NC(=O)[C@H](CC(N)=O)NC(=O)[C@H](C)NC(=O)[C@H](CC(C)C)NC(=O)[C@H](CCCNC(=N)N)NC(=O)[C@H](CCC(N)=O)NC(=O)[C@@H](NC(=O)[C@H](C)NC(=O)[C@@H]1CSSC[C@H](NC(=O)[C@@H](N)CCCCNC(=O)CC[C@H](NC(=O)CCCCCCCCCCCCCCCCCCC(=O)O)C(=O)O)C(=O)N[C@@H](CC(N)=O)C(=O)N[C@@H]([C@@H](C)O)C(=O)N[C@@H](C)C(=O)N[C@@H]([C@@H](C)O)C(=O)N1)[C@@H](C)O)C(=O)N1CCC[C@H]1C(=O)N[C@@H](CO)C(=O)N[C@@H](CO)C(=O)N[C@H](C(=O)N[C@@H](CC(N)=O)C(=O)N[C@H](C(=O)NCC(=O)N[C@@H](CO)C(=O)N[C@@H](CCC(=O)O)C(=O)N[C@H](C(=O)N[C@@H](Cc1ccc(O)cc1)C(N)=O)[C@@H](C)O)C(C)C)[C@@H](C)O [Example 27],0.133 nM,3 nM,–,–,0.837 nM,–,34.5 nM,–,–,–,–,–,–
